Legend:
Type in all cases: cell-based
mouse sperm [1] = experiment: Mouse sperm motility by CASA analysis (VCL) after 12 h capacitation; details: 0.2 μM clofilium, 12 h capacitation in M16-BSA medium at 37° C., vs control
Description: 3. The viability of mouse sperm was determined by the measurement of the sperm motility. The motility analysis was performed using Computer Assisted Semen Analysis (CASA analysis). The CASA analysis was always performed in the examples using a CEROS™, Hamilton Thorne Bioscience, USA. VCL was thus measured. As known to the skilled person, VCL (for Curvilinear Velocity) is the average velocity of the sperm head through its real path. For this analysis, samples were diluted at 0.1 10^6/mL. The diluted sample was incubated for 12 hours at 37° C. in a capacitation medium of M16-BSA medium, with or without 0.2 μM clofilium. For the CASA measurement, 10 μL of the sample were placed on a 2X-CEL Slides, […], Leja Products B.V.,Netherlands, placed on the heating stage (37° C.) of the CEROS ™. A total of 10 automatically selected fields were analyzed.

mouse sperm [2] = experiment: Ability of mouse sperm to fertilize oocytes after incubation in capacitation medium (in vitro fertilization, 2-cell embryos); details: vs control; for percentage of 2-cell embryos vs mature MII oocytes at 24 h post fertilization: 12 hours incubation prior fertilization; for percentage of 2-cell embryos vs mature oocytes at 48 h post fertilization: 5 μM clofilium in M16-BSA medium
Description: Mouse sperm was obtained by manual trituration of caudae epididymides from male and were allowed to swim in M2 medium (from Sigma) for 10 minutes. The M2 medium composition in g/L is as follows: CaCl2 0.25; MgSO4 (anhydrous) 0.1649; KCl 0.35635; K2HPO4 0.162; NaHCO3 0.35; NaCl 5.53193; Albumin, Bovine Fraction V 4.0; D-Glucose 1.0; HEPES (for 4-(2-HydroxyEthyl)-1-Piperazine EthaneSulfonic acid)×Na 5.42726; Pyruvic Acid×Na 0.0363; DL-Lactic Acid×Na 2.95). Sperm were then capacitated in M16 medium (from Sigma) with 2% fatty acid-free BSA (for Bovine Serum Albumin) (named “M16-BSA medium”) at 37° C. in a 5% v/v CO2 incubator for different times as specified. M16 medium is a commercial and commonly used medium for in vitro fertilization and culture of preimplantation stage embryos. Oocytes were collected from mature OF1 females, synchronized with 5 units of pregnant mare serum gonadotrophin (PMSG) and 5 units of human chorionic gonadotrophin (HCG). Cumulus were harvested directly from the ampulla and sperm were injected into the M16 droplets containing the cumulus. 1. The first test related to the ability of mouse sperm to fertilize oocytes when incubated prior fertilization in a capacitation medium containing clofilium with regard to a control medium, which is the same capacitation medium but without clofilium. The capacitation medium was M16-BSA medium. The control medium was the M16-BSA medium containing the sperm. It was compared to the same medium further including clofilium at a concentration of 5 μM (in the M16-BSA medium containing the sperm). Sperm was incubated in M16-BSA medium with or without clofilium and then added to M16 droplets containing the cumulus comprising the oocytes. Two-cell embryos were counted at 48 h post insemination (n=3). The number of oocytes reaching the two-cell stage were counted at 48 hours after fertilization. Two different concentrations of clofilium were tested: 0.2 μM of clofilium and 5 μM of clofilium (in the M16-BSA medium containing the sperm). The sperm incubation time prior fertilization was 12 hours. The test related to the ability of mouse sperm to fertilize oocytes, sperm being incubated prior fertilization in a medium containing quinidine with regard to a control medium, without quinidine. The control medium was the M16-BSA medium containing the sperm (“control”). It was compared to the same medium further including quinidine, at various concentrations 5 μM quinidine (“5 μM quinidine”), 10 μM quinidine (“10 μM quinidine”), 25 μM quinidine (“25 μM quinidine”) and 100 μM quinidine (“100 μM quinidine”).

bovine sperm = experiment: Bovine sperm motility by CASA analysis (VCL, total motility) after 24 h in capacitation medium; details: 24 h in capacitation medium at 37° C., vs control
Description: For motility, sperm were incubated with 0.2, 0.5, 1 and 5 μM clofilium diluted in the capacitation medium for 24 hours at 37° C. under saturated humidity. Sperm motility was measured using Computer Assisted Semen Analysis (CASA analysis). The CASA analysis was performed using a CEROS™, Hamilton Thorne Bioscience, USA. VCL (curvilinear velocity) was then measured. 2. The viability of the capacitated sperm was determined by the measurement of the sperm motility. The motility analysis was carried out as in Example 1.3. The first results are shown in FIGS. 6A and 6B, which illustrates the motility (in terms of VCL, in μm/s), i.e. the sperm velocity, sperm being incubated 24 h in a capacitation medium prior CASA, for each of the solutions tested: control (“[0 μM]”), 0.2 μM clofilium (“[0.2 μM]”), 0.5 μM clofilium (“[0.5 μM]” or “[0.5]”), 1 μM clofilium (“[1 μM]” or “[1]”) and 5 μM clofilium (“[5 μM]” or “[5]”) (FIG. 6A) and which illustrates the total motility (%), for each of the solutions tested “[0μM ]”, “[0.2 μM]” (or “[0.2]”), “[0.5 μM ]” (or “[0.5]”), “[1 μM ]” (or “[1]”) and “[5 μM ]” (or “[5]”) (FIG. 6B). As known to the skilled person, the “total motility”indicates the overall percentage of sperm that are moving in any direction (VAP>1μm/s).

Question: `CCCCCCC[N+](CC)(CC)CCCCc1ccc(Cl)cc1` [clofilium] was tested. Which “motility of sperm (in terms of VCL)” value (mouse sperm [1]) did it give?
Answer: higher velocity than the “control”

Question: What about the “percentage of 2-cell embryos vs mature MII oocytes at 24 h post fertilization” value (mouse sperm [2]; 0.2 μM clofilium) of the same compound?
Answer: improves the mouse in vitro fertilization outcome

Question: What about the “percentage of 2-cell embryos vs mature oocytes at 48 h post fertilization” value (from here on “percentage … at 48 h post fertilization”) (mouse sperm [2]; 3 h incubation period prior fertilization) of the same compound?
Answer: not significantly different than that of control

Question: And the “percentage … at 48 h post fertilization” value (mouse sperm [2]; long incubation periods (>3 hours) prior fertilization)?
Answer: higher number of 2-cell stages than what was observed with the control

Question: And the “percentage … at 48 h post fertilization” value (mouse sperm [2]; short incubation periods (<3 hours) prior fertilization)?
Answer: positive effect

Question: What about the “percentage of 2-cell embryos vs mature MII oocytes at 24 h post fertilization” value (mouse sperm [2]; 5 μM clofilium) of the same compound?
Answer: potent

Question: What about the “motility (in terms of VCL), sperm velocity” value (“motility (in terms of VCL)” below) (bovine sperm; 0.2 μM clofilium) of the same compound?
Answer: higher velocity than the non-treated

Question: What about the “motility (in terms of VCL)” value (bovine sperm; 0.5 μM clofilium) of the same compound?
Answer: higher velocity than the non-treated

Question: What about the “motility (in terms of VCL)” value (bovine sperm; 1 μM clofilium) of the same compound?
Answer: higher velocity than the non-treated

From patent publication US20230292743A1, “Method for increasing the lifespan and motility of animal sperm using an inhibitor of Slo3 potassium channel” (IMV TECHNOLOGIES, priority 2017, published 2023)
